From patent publication EP1038880B1, “Androstanes and pregnanes for allosteric modulation of GABA receptor” (priority 1994, dated 1995)

Experiments:
[1] = system: GR complex; assay: [35S]TBPS binding assay (inhibition of [35S]TBPS binding, cerebral cortex P2 homogenate); parameters: species or system rat; details: for IC50: 2 nM [35S]TBPS, rat cerebral cortex P2 homogenate; for IMAX: maximum inhibition of [35S]TBPS binding
Outline: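 Rat (male Sprague-Dawley) cortical P2 homogenate (0.5 mg protein) in 50 mM Na/K phosphate pH 7.4, 200 mM NaCl, incubated with 2 nM [35S]TBPS plus steroid test compounds (DMSO) in presence of GABA plus (+)bicuculline, 25°C, 90 min. Filtration, scintillation counting; nonspecific binding defined with […].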

[2] = system: Bovine Uteral Progesterone Receptors; assay: Inhibition of 3H-progesterone binding, uterus cytosol; details: competitor 10^-6M; 3H-progesterone 0.15 nM
Procedure: The data presented were obtained by performing assays in accordance with the procedures described in et al. 1988 previously to determine the effect of progesterone metabolites and their derivatives and the progestin R5020 on the binding of [^3H]R5020 to the progesterone receptor in rat uterus (Gee et al. 1988).
^3H-progesterone (0.15 nM) was incubated with the rat uterus cytosol in the presence of the test compounds. The specific binding were determined after incubation and compared to the control incubation without the compounds. The data are expressed as percent inhibition of binding.
In Table 3, rats were adrenalectomized 3 days prior to sacrifice. To isolate the mineralocorticoid receptor, brain cytosol fractions were prepared as describe in Gee, et al. 1988. The drugs were incubated with 3 nM of ^3H-aldosterone (the specific ligand for the mineralocorticoid receptor) in the presence of the selective type II agonist RU28362 (0.5 µM) which blocks ^3H-aldosterone binding to the type II (glucocorticoid) receptors. Table 2. Inhibition of 3H-Progesterone Binding to the Bovine Uteral Progesterone Receptors

[3] = target: T1, Hippocampal Mineralocorticoid Receptors (Rattus norvegicus, UniProt P22199); assay: Inhibition of 3H-aldosterone binding, brain cytosol; parameters: species or system rats; details: competitor 10^-6M; 3 nM 3H-aldosterone, RU28362 0.5 µM
T1 construct: To isolate the mineralocorticoid receptor, brain cytosol fractions were prepared; from tissue; host or cells: rat brain (hippocampal) cytosol
T1 sequence (P22199 1-981): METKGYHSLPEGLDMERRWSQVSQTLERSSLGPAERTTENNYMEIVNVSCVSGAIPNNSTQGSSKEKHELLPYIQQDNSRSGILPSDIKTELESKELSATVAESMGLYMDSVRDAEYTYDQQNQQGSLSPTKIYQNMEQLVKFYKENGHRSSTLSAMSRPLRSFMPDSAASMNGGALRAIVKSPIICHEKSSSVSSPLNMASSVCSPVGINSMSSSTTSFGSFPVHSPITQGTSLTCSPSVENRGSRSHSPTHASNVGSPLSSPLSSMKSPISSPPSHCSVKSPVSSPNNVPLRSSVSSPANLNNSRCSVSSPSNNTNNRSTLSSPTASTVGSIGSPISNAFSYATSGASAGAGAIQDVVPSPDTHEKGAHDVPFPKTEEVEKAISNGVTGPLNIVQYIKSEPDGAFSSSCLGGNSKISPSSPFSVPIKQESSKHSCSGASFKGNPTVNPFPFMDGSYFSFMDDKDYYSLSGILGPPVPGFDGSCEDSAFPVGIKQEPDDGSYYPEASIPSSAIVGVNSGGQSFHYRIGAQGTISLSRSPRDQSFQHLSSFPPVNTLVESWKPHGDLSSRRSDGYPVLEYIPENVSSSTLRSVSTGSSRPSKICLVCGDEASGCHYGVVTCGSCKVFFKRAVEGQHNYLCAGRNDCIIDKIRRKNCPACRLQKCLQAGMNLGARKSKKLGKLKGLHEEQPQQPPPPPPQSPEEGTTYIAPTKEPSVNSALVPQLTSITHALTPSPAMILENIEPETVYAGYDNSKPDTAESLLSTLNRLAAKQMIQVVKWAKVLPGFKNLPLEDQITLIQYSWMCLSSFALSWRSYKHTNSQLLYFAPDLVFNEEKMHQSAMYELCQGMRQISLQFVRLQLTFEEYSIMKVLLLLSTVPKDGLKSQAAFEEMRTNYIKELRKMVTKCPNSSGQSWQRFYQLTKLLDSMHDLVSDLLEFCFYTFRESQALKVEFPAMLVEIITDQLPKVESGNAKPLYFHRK
Procedure: Various hormonal activities of representative neuroactive steroids were further studied through testing their potential estrogenic, mineralocorticoid and glucocorticoid activities. These activities were analyzed by monitoring the ability of the compounds to inhibit binding of the steroid hormones to their respective hormone receptors.
In Table 3, rats were adrenalectomized 3 days prior to sacrifice. […] Table 2. Inhibition of 3H-Progesterone Binding to the Bovine Uteral Progesterone Receptors
Table 3. Inhibition of 3H-Aldosterone Binding to Hippocampal Mineralocorticoid Receptors

[4] = system: metrazol induced convulsions; assay: animal or person; type: in vivo, mice; details: IP; for responders at 10 mg/kg: Mus musculus, 10 min, 10 minutes prior to metrazol (85 mg/kg), read-out: % Protected
Procedure: Experiments were also performed to determine the physiological relevance of neuroactive steroid and GABA receptor interactions by assessing the ability of the compounds of and used in the invention to prevent metrazol induced convulsions in mice. Mice were injected with various doses of the test compounds of the invention, 10 minutes prior to the injection of metrazol. The time to onset of myoclomis (presence of forelimb clonic activity) induced by metrazol was determined by observing each mouse for a period of 30 minutes. […] Table 6: Antimetrazol Activity of Neuroactive Steroids in Mice
The anticonvulsant tests are similar to that described above. […] The number of animals with tonic and/or clonic convulsions was recorded. In the maximal electroshock test, 50 mA of current at 60 Hz was delivered through corneal electrodes for 200 msec to induce tonic seizure. The ability of compounds to abolish the tonic component was defined as the endpoint. General CNS depression potential was determined by a rotorod test 10 minutes after the injection of compounds where the number of mice staying on a rotating (6 rpm) rod for 1 minute in one of the three trials was determined. […] Table 7. Anticonvulsant Activity of Exemplified Neuroactive Steroids and those of Selected Clinically Useful Anticonvulsants in Mice

[5] = system: N.I.H. Swiss-Webster mice; assay: Elevated plus-maze; type: in vivo; details: for response vs control in vivo at 10 mg/kg: Mus musculus, ip, read-out: % Control
Description: The theoretical basis for the elevated plus-maze test is similar to that of the light/dark transition test. […] The apparatus consists of two open-arms and two enclosed-arms. The elevated plus-maze test allows for two measures of anxiety, the number of entries into the open-arms and the time spent on the open-arms, both expressed as a percentage of the total number of entries and time spent in/on both the open-arms and enclosed-arms.
Male N.LH. Swiss-Webster mice (Harlan, Indianapolis, IN) weighing 15-20 g were housed four per cage in polyethylene cages with sawdust bedding. The colony mom was environmentally controlled (22°C) with a 12^- hr light/dark cycle (0600-1800 hr). Food and water were available ad libitum, except during testing. The experiments were run from 0700-1500 hr and groups were counterbalance for time of day effects. Mice were only administered drug or vehicle once.
The apparatus included two open arms perpendicular to two enclosed arms elevated 50 cm from the floor. Each arm was 50 cm long and the walls of the enclosed arms were 40 cm tall. The maze was made completely of black plexiglass. Incandescent 200 W light bulbs were above each of the open arms to produce a strong contrast between the open arms and the enclosed arms.
Ten minutes after an injection, the N.I.H. Swiss-Webster mice were placed in the center of the plus-maze facing an open arm. During the 5 min test period, the number of entries onto the open arms and the enclosed arms, and the time spent in the open arms and enclosed arms were measured. All four paws had to be within an arm for the dependent variable to be measured. Therefore, the time spent in the center of the maze is not counted, so the total time spent in the open arms and the enclosed arms may not equal 5 min.

Compound | modulation of [35S]TBPS binding, in words ([1]; even at very high concentrations (Figure 6)) | % of Inhibition [2] [%] | inhibition at 1 µM [3] [%] | IC50 [1] [µM] | IMAX [1] [%] | responders at 10 mg/kg [4] [%] | response vs control in vivo at 10 mg/kg [5] [%] | % Protected ([4]; 1 mg/kg, 50% hpbcd) [%] | % Control ([5]; IP, 1 mg/kg, 50% hpbcd) [%]
C[C@H](O)[C@H]1CC[C@H]2[C@@H]3CC[C@@H]4C[C@H](O)CC[C@]4(C)[C@H]3CC[C@]12C [5β-pregnan-3α,20α-diol] | partially modulate | 0 | 0 | – | – | – | – | – | –
CCC(=O)[C@@]1(C)CC[C@H]2[C@@H]3CCC4=CC(=O)CCC4=C3CC[C@@]21C [Example R5020, promegesterone] | – | 100 | – | – | – | – | – | – | –
C[C@]12CC[C@@H](O)C[C@H]1CC[C@@H]1[C@@H]2CC[C@]2(C)[C@@H](C(=O)Cn3cccn3)CC[C@@H]12 [3α-hydroxy-21-(pyrazol-1-yl)-5β-pregnan 20-one] | – | – | – | 0.121 | 67 | 62.5 | 129 | – | –
Cc1cc(C)n(CC(=O)[C@H]2CC[C@H]3[C@@H]4CC[C@@H]5C[C@H](O)CC[C@]5(C)[C@H]4CC[C@]23C)n1 [3α-hydroxy-21-(1H-3,5-dimethylpyrazolyl)-5β-pregnan-20-one] | – | – | – | 0.096 | 77 | 50 | 128 | – | –
CC(=O)[C@H]1CC[C@H]2[C@@H]3CC[C@@H]4C[C@@](O)(C#Cc5ccc(-c6ccccc6)cc5)CC[C@]4(C)[C@H]3CC[C@]12C [3β-(4'-biphenylethynyl)-3α-hydroxy-5β-pregnan-20-one] | – | – | – | 0.043 | 83 | 0 | 111 | – | –
C[C@]12CC[C@@H](O)C[C@H]1CC[C@@H]1[C@@H]2CC[C@]2(C)[C@@H](C(=O)Cn3nccn3)CC[C@@H]12 [3α-hydroxy-21-(2H-1,2,3-triazol-2-yl)-5β-pregnan-20-one] | – | – | – | 0.056 | 79 | 100 | 164 | – | –
CC(=O)[C@H]1CC[C@H]2[C@@H]3CC[C@@H]4C[C@@](O)(C#Cc5ccccn5)CC[C@]4(C)[C@H]3CC[C@]12C [3α-Hydroxy-3β-(2-pyridyl)ethynyl-5β-pregnan-20-one] | – | – | – | 0.108 | 98 | 37.5 | 123 | – | –
CC(=O)CCCC#C[C@@]1(O)CC[C@@]2(C)[C@H](CC[C@@H]3[C@@H]2CC[C@]2(C)[C@@H](C(C)=O)CC[C@@H]32)C1 [3α-hydroxy-3β-[6'-oxo-1'-heptynyl]-5β-pregnan-20-one] | – | – | – | 0.09 | 101 | 62.5 | 130 | – | –
CC(=O)c1ccc(C#C[C@@]2(O)CC[C@@]3(C)[C@H](CC[C@@H]4[C@@H]3CC[C@]3(C)[C@@H](C(=O)CO)CC[C@@H]43)C2)cc1 [3β-(4'-acetylphenylethynyl)-3α,21-dihydroxy-5β-pregnan-20-one] | – | – | – | 0.022 | 99 | 75 | 115 | – | –
C#CCOCC#C[C@@]1(O)CC[C@@]2(C)[C@H](CC[C@@H]3[C@@H]2CC[C@]2(C)[C@@H](C(C)=O)CC[C@@H]32)C1 [3α-hydroxy-3β-[3-(2'-propynyloxy)-1-propynyl]-5β-pregnan-20-one] | – | – | – | 0.028 | 105 | 50 | 178 | – | –
C[C@]12CCC(=O)C=C1CC[C@@H]1[C@@H]2[C@@H](O)C[C@]2(C=O)[C@@H](C(=O)CO)CC[C@@H]12 [Aldosterone] | – | – | 95.5 | – | – | – | – | – | –
CC(=O)c1ccc(C#CC2(O)CCC3(C)C(CCC4C3CCC3(C)C(C(=O)CO)CCC43)C2)cc1 (stereo not drawn) [3β-(4'-Acetylphenylethynyl)-3α-21-dihydroxy-5α-pregnan-20-one] | – | – | – | 0.004 | 92 | – | – | 87.5 | 150
COc1ccccc1C#C[C@@]1(O)CC[C@@]2(C)[C@H](CC[C@@H]3[C@@H]2CC[C@]2(C)[C@@H](C(C)=O)CC[C@@H]32)C1 [3α-hydroxy-3β-(2'-methoxyphenyl)ethynyl-5β-pregnan-20-one] | – | – | – | 0.238 | 99 | 12.5 | 152 | – | –
C[C@]12CC[C@@H](O)C[C@H]1CC[C@@H]1[C@@H]2CC[C@]2(C)[C@@H](C(=O)CSS(=O)(=O)[O-])CC[C@@H]12.[Na+] [sodium S-(3α-hydroxy-5β-pregnan-20-on-21-yl) thiosulfate] | – | – | – | 0.268 | 88 | 37.5 | 143 | – | –
